“And” between values parts separate entries of the source, which are not always exact repeats. Identical values can stand only once.
Key:
influenza B = conditions: patients aged 5 to 18 years, cited from earlier work
[1] = test system: influenza A/H1N1pdm09, A/H3N2, and B viruses; assay: Fever duration after NAI treatment in outpatients with laboratory confirmed influenza (observational study); type: in vivo, human; conditions: for HR (Cox proportional hazards model of fever duration): multivariable analysis, compared to oseltamivir (reference 1.00); for Mean fever duration after NAI treatment: univariate analysis, all patients aged <20 years, all types/subtypes, from start of treatment to <37.5 °C
[2] = test system: oseltamivir-sensitive influenza A/H1N1pdm09 virus; type: in vivo; conditions: oseltamivir-treated patients 0–5 years, oseltamivir-sensitive viruses, n = 111

| Molecule | Median fever duration longer than for peramivir (influenza B; P <0.01) | Median fever duration after treatment (influenza B) | Average fever duration ([1]; age group 0 to 5 years) | Average fever duration ([1]; age group 6 to 9 years) | Average fever duration ([1]; age group 10 to 19 years) | HR (Cox proportional hazards model of fever duration) [1] | Mean fever duration after NAI treatment [1] | Average fever duration [2] |
| --- | --- | --- | --- | --- | --- | --- | --- | --- |
| [H]/N=C(\N)N[C@H]1C=C(C(=O)O)O[C@@H]([C@H](OC)[C@H](O)CO)[C@@H]1NC(C)=O [Laninamivir, laninamivir] | 1 days | 3 days | 75.8 h | 42.9 h | 36.6 h | 0.78 | 39.8 h | – |
| CCOC(=O)C1=C[C@@H](OC(CC)CC)[C@H](NC(C)=O)[C@@H](N)C1 [Oseltamivir, oseltamivir] | – | – | 42.2 h | 37.3 h | 29.8 h | 1.00 | 40.1 h | 40 h and 40 ± 27 h |
| CC(=O)N[C@H]1[C@H]([C@H](O)[C@H](O)CO)OC(C(=O)O)=C[C@@H]1N=C(N)N [Zanamivir, zanamivir] | – | – | 45.4 h | 42.3 h | 35.4 h | 0.87 | 38.5 h | – |
| peramivir | – | – | 46.3 h | 31.3 h | 32.3 h | 1.05 | 38.3 h | – |

— paper PMC6837752, “Effectiveness of four types of neuraminidase inhibitors approved in Japan for the treatment of influenza” (PLoS ONE, 2019)
